PubChem BioAssay AID179 (DTP/NCI, 2004)
Active and inactive are the calls of the source.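 The calls were made as follows: active = compounds giving half or more protection of infected cells from virus-caused growth loss, again on retest; inactive = the rest.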

System: CEM cells HIV-1 protection, formazan growth assay
Assay: NCI AIDS Antiviral Assay
Conditions: for IC50: measured here: growth of uninfected CEM cells
Outline: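 Protection of CEM cells against HIV-1 measured as cell growth via soluble formazan read-out, with five concentrations tested on both infected and uninfected cells; failure to protect may reflect toxicity.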

SMILES | EC50 [µM] | IC50 [µM] | outcome
Cc1ccc(Cc2n[nH]c(=O)[nH]2)cc1 | > 200 | > 200 | –
CC1(C)C(=NN=C(N)N)C(C)(C)C1=NN=C(N)N | > 50.1 | > 50.1 | –
O=C(Nn1c(-c2ccccc2)nc2ccccc2c1=O)c1ccccc1O | > 200 | 17.4 | –
C#CCN(C(=O)C(F)(F)F)C(/C=C\C(=O)OC)(C(=O)OCC)C(=O)OCC | > 200 | 83.2 | –
CSc1nc(=S)[nH]c2c1c(C)nn2-c1ccccc1 | > 200 | 28.8 | –
O=CC[C@H]1C=Cc2ccccc2[C@@]12C=CC(=O)CC2 | > 28.8 | 21.9 | –
COC(=O)C(=C/c1ccc(OC)cc1)/C(C(=O)O)=C(/C)c1ccccc1 | > 708 | – | –
CC(=O)OC1C(OC(C)=O)[C@@]2(C)C(C(OC(C)=O)[C@@H]3C2C(C)C=C2OC(=O)[C@@](C)(O)[C@@]23C)[C@H]2C1[C@]1(C)C(C[C@@H]3O[C@@H]3C1OC(C)=O)C(=O)[C@@H]2O (some centres undefined) | – | – | inactive
COc1ccc(/C(C)=N/N=C\c2cc(OC)c(OC)c(OC)c2)cc1 | > 200 | > 200 | –
FC(F)(F)c1cccc(COCCN2CCN(Cc3cccc(C(F)(F)F)c3)CC2)c1 | > 200 | 18.2 | –
COCn1cnc2c(=O)nc(SC)n(-c3ccccc3)c21 | > 200 | > 200 | –
CCOC(=O)c1ccc(-c2onc(C)c2Br)[nH]1 | > 200 | 39.8 | –
O=C(O)CCCCCCC[n+]1ccccc1 | 126 | > 200 | –
C[Si](C)(C)c1ccc(-c2sc(-c3ccc([Si](C)(C)C)s3)c3c2C[Si]2(C3)Cc3c(-c4ccc([Si](C)(C)C)s4)sc(-c4ccc([Si](C)(C)C)s4)c3C2)s1 | > 5.75 | > 5.75 | –
COC(=O)c1ccc(S)c(S(=O)(=O)Nc2n[nH]c(N)n2)c1 | > 200 | > 200 | –
CN(CC#N)[C@H]1CCC[C@]1(O)C#C[Si](C)(C)c1ccccc1 | > 16.6 | > 16.6 | –
C=C(C)CCNCC/C=C\[Si](C)(C)C | > 1170 | > 1170 | –
NC(=O)CNC(=O)c1ccc(NC(=O)c2ccccc2SC(=O)CCCC[n+]2ccccc2)cc1 | 15.8 | 50.1 | –

SMILES | EC50 [µM] | IC50 [µM] | outcome
O=C(c1ccco1)N(C(=O)N1CCCCC1)c1ccccc1 | > 200 | > 200 | –
CN1N=C(c2ccncc2)OC1c1cccc(F)c1 (centres undefined) | > 200 | 79.4 | –
O=C1NC2c3c(I)sc(I)c3/C(=N\O)C2O1 (centres undefined) | > 200 | 16.2 | –
CC(=O)O[C@H]1CC[C@@]2(C)C(=CC[C@@H]3C2CC[C@]2(C)Nc4nc5ccccc5cc4CC32)C1 (some centres undefined) | – | – | inactive
O=C1C2C3C=CC(C2C(=O)N1COP(=O)(O)O)C1C2C(=O)N(COP(=O)(O)O)C(=O)C2C31 (centres undefined) | > 100 | > 100 | –
OCC1CC2c3[nH]c4ccccc4c3CCN2C1 (centres undefined) | > 282 | > 282 | –
CC1=NN(C(=O)CC(=O)Nc2cccc(C)c2)C(=O)C1N=Nc1ccc(S(=O)(=O)CCOS(=O)(=O)O)cc1 (centres undefined) | > 2 | 1.26 | –
O=C(Nc1nn[nH]n1)c1nc(-c2ccccc2)cc(=O)[nH]1 | > 200 | > 200 | –
Cc1cn(C2CC(N=[N+]=[N-])C(COP(=O)(OCC(=O)c3ccco3)OCC(=O)c3ccco3)O2)c(=O)[nH]c1=O (centres undefined) | 0.00457 | 2 | –
Cc1nc2sc3c(c2c(=O)o1)CCCC3 | > 200 | 33.1 | –
CC(CN1CCN(CC(C)Nc2ccnc3cc(Cl)ccc23)CC1)Nc1ccnc2cc(Cl)ccc12 (centres undefined) | > 50.1 | > 50.1 | –
CCOC(=O)/C(O)=C1\C(=O)N(C)C(=O)C1c1cccc(OC)c1 (centres undefined) | – | – | inactive
C1CCC2(CC1)CCN(CCCN1CCOCC1)CC2 | – | – | inactive
Cc1ccc(N2C=Nn3c(nc4sc5c(c4c3=O)CCCC5)C2)cc1 | 25.1 | 42.7 | –
CS(=O)(=O)CS(C)(=O)=O | > 200 | > 200 | –
CCN(CC)C(C)(C)C(=O)/C=C/c1ccc(C)cc1 | – | – | inactive
CC12NN=NC1C(=O)NC2=O (centres undefined) | > 200 | > 200 | –
